{
  "source": "patent US6534676B2",
  "about": "“Method to treat chronic heart failure and/or elevated cholesterol levels using 3,5-diiodothyropropionic acid and method to prepare same” (The Arizona Board of Regents on Behalf of the University of …, priority 2001, dated 2003)",
  "key": {"[1]": {"details": "post-infarction models, alone or with an angiotensin I-converting enzyme inhibitor; cited from earlier work"}, "[2]": {"details": "normal primates; cited from earlier work"}, "[3]": {"details": "post-infarction rats, border zone around the infarct; cited from earlier work"}, "[4]": {"test": "Heart failure patients: serum thyroid function tests", "assay_type": "in vivo, human", "details": "for Thyrotropin: baseline 2.47 ± 0.6; for FreeT4: baseline 1.19 ± 0.1; for ReverseT3: baseline 197 ± 27", "experimental": "All patients were hospitalized before initiating treatment and a right heart catheterization, radionuclide ejection fraction and echocardiogram were performed. Serum samples were drawn for measurement of thyrotropin, total T4, free T4, and reverse T3.\n(§1) DITPA cross-reacted with antibodies for detection of T3, which consequently was not measured. Renal and hepatic function tests also were performed. Patients were randomly assigned in double-blind fashion to receive either DITPA at a dosage of 1.875 mg/kg daily or placebo in two or three divided doses. For the first four days of drug administration patients were monitored on a telemetry unit. Thereafter, weekly electrocardiograms were performed and patients were examined for changes in thyroid or cardiac status or evidence of drug toxicity.\n(§2) At the end of two weeks an echocardiogram was obtained. If there was no clinical evidence of progression of heart failure or development of an arrhythmia the dose of DITPA was increased to 3.75 mg/kg daily. After an additional two weeks of treatment with the higher dosage of the drug patients were readmitted to the hospital and the tests performed in the initial evaluation were repeated.\nRight heart catheterization was performed after the patient had been fasted overnight; no premedication was given. Pulmonary artery, pulmonary capillary wedge and right heart pressures were measured with a 7 Fr Swan-Ganz catheter introduced into the right femoral vein. Blood pressures were recorded with an automated arm cuff system. After an initial stabilization period of 20 to 30 minutes, the resting hemodynamic measurements were obtained. Thermodilution cardiac output measurements were averaged from five recordings after discarding the highest and lowest values. All blood tests were performed in the Clinical Pathology Laboratory at the Southern Arizona Veterans Administration Health Care System."}, "[5]": {"test": "Heart failure patients: echocardiography", "assay_type": "in vivo, human", "details": "for Shortening velocity: baseline 0.69 ± 0.15; for Ratio of early to late filling: baseline 1.10 ± 0.21; for LV diastolic dimension: baseline 6.84 ± 0.33; for Fractional shortening: baseline 17.0 ± 3.5; for Isovolumic relaxation time: baseline 92.2 ± 9.5; for LV mass: baseline 495.8 ± 45.9; for LV end-systolic dimension: baseline 5.72 ± 0.41", "experimental": "as §1, §2\nM-mode, two-dimensional, and Doppler echocardiograms were obtained with an ultrasonographic system equipped with a […] transducer (GE VingMed, Milwaukee, Wis.) according to the recommendation of the American Society of Echocardiography. Ejection fraction was measured by gated radionuclide myocardial imaging."}, "[6]": {"test": "Heart failure patients: serum lipid levels", "assay_type": "in vivo, human", "details": "for LDL-cholesterol: text baseline 107.3±42.8 mg/dL; for HDL Cholesterol / Triglyceride: serum; for HDL Cholesterol: baseline 32.8 ± 2.8; for Triglyceride: baseline 248.7 ± 40.4", "experimental": "DITPA cross-reacted with antibodies for detection of T3, which consequently was not measured. Renal and hepatic function tests also were performed. Patients were randomly assigned in double-blind fashion to receive either DITPA at a dosage of 1.875 mg/kg daily or placebo in two or three divided doses. For the first four days of drug administration patients were monitored on a telemetry unit. Thereafter, weekly electrocardiograms were performed and patients were examined for changes in thyroid or cardiac status or evidence of drug toxicity. At the end of two weeks an echocardiogram was obtained. If there was no clinical evidence of progression of heart failure or development of an arrhythmia the dose of DITPA was increased to 3.75 mg/kg daily. After an additional two weeks of treatment with the higher dosage of the drug patients were readmitted to the hospital and the tests performed in the initial evaluation were repeated. Right heart catheterization was performed after the patient had been fasted overnight; no premedication was given. Pulmonary artery, pulmonary capillary wedge and right heart pressures were measured with a 7 Fr Swan-Ganz catheter introduced into the right femoral vein. Blood pressures were recorded with an automated arm cuff system. After an initial stabilization period of 20 to 30 minutes, the resting hemodynamic measurements were obtained. Thermodilution cardiac output measurements were averaged from five recordings after discarding the highest and lowest values. All blood tests were performed in the Clinical Pathology Laboratory at the Southern Arizona Veterans Administration Health Care System."}, "[7]": {"test": "Cardiac performance, chronotropic and metabolic effect compared with L-thyroxine (background)", "assay_type": "in vivo", "excerpt": "Because of potential adverse effects of thyroid hormone, such as metabolic stimulation and tachycardia, what is required are thyroid hormone analogs with fewer undesirable side effects. […] Like thyroid hormone, DITPA binds to nuclear T3 receptors of the c-erbA proto-oncogene family."}, "[8]": {"tested_on": "nuclear T3 receptors of the c-erbA proto-oncogene family", "details": "background statement; cited from earlier work"}, "[9]": {"details": "serum, after 2 weeks (1.875 mg/kg daily)"}, "[10]": {"details": "serum, after 4 weeks (3.75 mg/kg daily)"}, "[11]": {"details": "echocardiography, after 2 weeks (1.875 mg/kg daily)"}, "[12]": {"details": "echocardiography, after 4 weeks (3.75 mg/kg daily)"}, "[13]": {"details": "heart failure patients, after four weeks"}, "[14]": {"details": "heart failure patients, after two weeks"}, "[15]": {"details": "after 2 weeks (1.875 mg/kg daily)"}, "[16]": {"details": "after 4 weeks (3.75 mg/kg daily)"}},
  "data": [
    {"smiles": "O=C(O)CCc1cc(I)c(Oc2ccc(O)cc2)c(I)c1", "note": "[DITPA, 3,5-Diiodothyropropionic acid]", "values": [
      {"measurement": "left ventricular (LV) performance", "setting": "[1]", "result": "improve left ventricular (LV) performance"},
      {"measurement": "in vivo force-frequency and relaxation-frequency relationships", "setting": "[2]", "result": "enhances the in vivo force-frequency and relaxation-frequency relationships"},
      {"measurement": "capillary growth", "setting": "[3]", "result": "increase in capillary growth"},
      {"measurement": "Thyrotropin", "setting": "[4]; heart failure patients n=9, serum, after 2 weeks (1.875 mg/kg daily)", "result": "0.04 ± 01^++ mU/L"},
      {"measurement": "FreeT4", "setting": "[4]; [9]", "result": "1.17 ± 0.1^ ng/dL"},
      {"measurement": "ReverseT3", "setting": "[4]; [9]", "result": "477 ± 83^++ ng/dL"},
      {"measurement": "FreeT4", "setting": "[4]; [10]", "result": "1.17 ± 0.15", "unit": "ng/dL"},
      {"measurement": "Thyrotropin", "setting": "[4]; [10]", "result": "0.018 ± 0.0004", "unit": "mU/L"},
      {"measurement": "ReverseT3", "setting": "[4]; [10]", "result": "559 ± 108", "unit": "ng/dL"},
      {"measurement": "Shortening velocity", "setting": "[5]; [11]", "result": "0.55 ± 0.09", "unit": "circ/sec"},
      {"measurement": "Ratio of early to late filling", "setting": "[5]; [11]", "result": "0.89 ± 0.17"},
      {"measurement": "LV diastolic dimension", "setting": "[5]; [11]", "result": "6.83 ± 0.35", "unit": "cm"},
      {"measurement": "Fractional shortening", "setting": "[5]; [11]", "result": "13.8 ± 2.4", "unit": "%"},
      {"measurement": "Isovolumic relaxation time", "setting": "[5]; echocardiography, after 2 weeks (1.875 mg/kg daily), contrast baseline to 2 weeks P = 0.051", "result": "87.5 ± 9.2^++ msec"},
      {"measurement": "LV mass", "setting": "[5]; [11]", "result": "474.2 ± 38.2", "unit": "g"},
      {"measurement": "Shortening velocity", "setting": "[5]; [12]", "result": "0.57 ± 0.10", "unit": "circ/sec"},
      {"measurement": "Ratio of early to late filling", "setting": "[5]; [12]", "result": "1.16 ± 0.26"},
      {"measurement": "LV end-systolic dimension", "setting": "[5]; [12]", "result": "6.01 ± 0.33", "unit": "cm"},
      {"measurement": "LV diastolic dimension", "setting": "[5]; [12]", "result": "6.96 ± 0.30", "unit": "cm"},
      {"measurement": "Fractional shortening", "setting": "[5]; [12]", "result": "13.8 ± 2.5", "unit": "%"},
      {"measurement": "Isovolumic relaxation time", "setting": "[5]; echocardiography, after 4 weeks (3.75 mg/kg daily), ANOVA P 0.045", "result": "84.4 ± 8.5", "unit": "ms"},
      {"measurement": "LV mass", "setting": "[5]; [12]", "result": "477.9 ± 40.5", "unit": "g"},
      {"measurement": "LV end-systolic dimension", "setting": "[5]; heart failure patients n=9, echocardiography, after 2 weeks (1.875 mg/kg daily)", "result": "5.87 ± 0.30", "unit": "cm"},
      {"measurement": "cholesterol", "setting": "[6]; heart failure patients n=9, serum, after 2 weeks (1.875 mg/kg daily), baseline 198.9 ± 19.7", "result": "160.6 ± 14.3^++ ng/dL"},
      {"measurement": "LDL-cholesterol", "setting": "[6]; heart failure patients, after 4 weeks", "result": "80.5 ± 13.7", "unit": "mg/dL"},
      {"measurement": "decrease in LDL-cholesterol", "setting": "[6]; [13]", "result": 25, "unit": "%"},
      {"measurement": "decrease in cholesterol", "setting": "[6]; [13]", "result": 24, "unit": "%"},
      {"measurement": "decrease in serum triglycerides", "setting": "[6]; heart failure patients, after four weeks, P=0.005", "result": 35, "unit": "%"},
      {"measurement": "cholesterol", "setting": "[6]; heart failure patients, after four weeks, text baseline 185.8±46.9 mg/dL, P=0.013", "result": "140.7 ± 16.2", "unit": "mg/dL"},
      {"measurement": "average decrease in LDL-cholesterol", "setting": "[6]; [14]", "result": 17, "unit": "%"},
      {"measurement": "average decrease in cholesterol", "setting": "[6]; [14]", "result": 14, "unit": "%"},
      {"measurement": "decrease in serum triglycerides", "setting": "[6]; heart failure patients, after two weeks, P<0.05", "result": 11, "unit": "%"},
      {"measurement": "cholesterol", "setting": "[6]; heart failure patients, after two weeks, text baseline 185.8±46.9 mg/dL, P<0.05", "result": "160.6 ± 14.3", "unit": "mg/dL"},
      {"measurement": "LDL-cholesterol", "setting": "[6]; heart failure patients, at two weeks", "result": "89.4 ± 12.7", "unit": "mg/dL"},
      {"measurement": "HDL Cholesterol", "setting": "[6]; [15]", "result": "30.6 ± 2.0", "unit": "mg/dL"},
      {"measurement": "Triglyceride", "setting": "[6]; [15]", "result": "203.0 ± 30.4^++ mg/dL"},
      {"measurement": "HDL Cholesterol", "setting": "[6]; [16]", "result": "31.4 ± 3.1", "unit": "mg/dL"},
      {"measurement": "Triglyceride", "setting": "[6]; [16]", "result": "143.7 ± 21.1", "unit": "mg/dL"},
      {"measurement": "patients in whom LDL-cholesterol decreased", "setting": "[6]; treated for 4 weeks", "result": "8 of 9"},
      {"measurement": "chronotropic effect relative to L-thyroxine", "setting": "[7]; at increased cardiac performance", "result": "approximately half of the chronotropic effect"},
      {"measurement": "metabolic stimulation relative to L-thyroxine", "setting": "[7]; in vivo", "result": "less metabolic stimulation than L-thyroxine"},
      {"measurement": "binding to nuclear T3 receptors", "setting": "[8]", "result": "binds"}
    ]}
  ]
}
